Experimental data reported in BindingDB's records for doi:10.1016/j.bioorg.2006.01.004 (University of Zagreb, 2006).
“And” between values parts separate entries of the source, which are not always exact repeats. Equal entries are not always repeated.

Biological target: Carboxylic ester hydrolase (Equus caballus, UniProt Q9N1N9)
Assay: Inhibition Assay
Settings: 40 °C
Description: Butyrylcholinesterase type IV-S, lyophilized from horse serum (sigma Chemical Co.) was used without further purification. HPLC analyses (Thermo Separation Products, Spectra SYSTEM 2000) were performed on an RP-18 column at 40 C.

Chain of Carboxylic ester hydrolase (Q9N1N9 whole entry): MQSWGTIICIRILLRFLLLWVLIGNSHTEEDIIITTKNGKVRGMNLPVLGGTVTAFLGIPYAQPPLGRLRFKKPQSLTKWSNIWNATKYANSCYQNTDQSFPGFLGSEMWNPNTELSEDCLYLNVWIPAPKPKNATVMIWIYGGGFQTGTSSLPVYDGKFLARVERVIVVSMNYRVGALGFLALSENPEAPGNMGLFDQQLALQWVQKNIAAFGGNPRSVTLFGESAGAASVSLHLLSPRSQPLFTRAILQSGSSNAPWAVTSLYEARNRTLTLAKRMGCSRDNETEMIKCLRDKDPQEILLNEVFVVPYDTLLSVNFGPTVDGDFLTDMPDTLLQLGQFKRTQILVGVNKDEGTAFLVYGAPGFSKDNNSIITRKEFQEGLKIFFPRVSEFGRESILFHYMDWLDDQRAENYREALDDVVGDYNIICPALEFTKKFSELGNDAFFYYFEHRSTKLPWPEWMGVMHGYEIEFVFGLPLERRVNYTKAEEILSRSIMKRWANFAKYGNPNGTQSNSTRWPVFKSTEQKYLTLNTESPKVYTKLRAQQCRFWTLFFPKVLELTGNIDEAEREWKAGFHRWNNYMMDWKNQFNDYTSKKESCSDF

| SMILES | Ki |
| --- | --- |
| O=C(NC1C[N+]2(Cc3ccccc3)CCC1CC2)c1ccccc1 [(S)-N-Benzyl-3-benzamidoquinuclidinium bromide, 12] | 25.9 µM and 3.7 µM |
| CCCC(=O)NC1C[N+]2(Cc3ccccc3)CCC1CC2 [(S)-N-Benzyl-3-butanamidoquinuclidinium bromide, 9] | 160 µM and 242 µM |
